Measurements taken from US8268961B2, “Antibacterial peptides and analogues thereof” (Universita Degli Studi di Siena, priority 2004, dated 2012).
Where two headings read alike, the source gives them in different places. Positions of bridges follow the written chain, without caps; N, C: chain ends. Chains are numbered I, II in the order given. No end group written: not given here.

Key:
[1] = test system: Staphylococus aureus MIU-68A; assay type: cell-based, Staphylococcus aureus
From the text: MIC is defined as the lowest concentration, in an antibiotic dilution range, that inhibits visible bacterial growth. The importance of MIC sensitivity test is based on the principle that in vitro sensitivity provides a predictive indication of the in vivo efficacy of the antibiotic therapy. Values are expressed as molar concentration and compared to MIC values obtained with commercially available antibiotics such as amikacin, ceftriaxone and levofloxacin (Table 3).
(§1) Reference strains (Escherichia coli ATCC 25922, Pseudomonas aeruginosa ATCC 27853, Staphylococus aureus ATCC 25923 and Chryseobacterium meningosepticum CCUG 4310) and several recent clinical isolates (including multidrug-resistant ones) of various species (Table 2) were used for conventional susceptibility testing experiments. Minimum Inhibitory Concentration (MIC) was determined by a standard microdilution assay as recommended by the National Commitee for Clinical Laboratory Standards (NCCLS) using cation-supplemented Mueller-Hinton (MH) broth (Oxoid Ltd. Basingstoke, UK) and a bacterial inoculum of 5×10^4 CFU per well, in a final volume of 100 μl. Results were recorded by visual inspection after 24 h of incubation at 37° C.

E. coli strain TG1 = experiment: Test of antibacterial activity (colony growth inhibition) on E. coli strain TG1; assay type: cell-based; conditions: E. coli TG1, colony counting vs control without peptide
Outline: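 E. coli TG1 (OD600 0.2) was incubated 75 min at 37 °C with peptide in PBS at 0.12–2 mg/ml. Cells were then diluted 1:1000, plated on 2×TY agar and grown overnight at 30 °C, and colonies were counted against an untreated control.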

E. coli ATCC 25922 = experiment: Minimal bactericidal concentration (MBC); assay type: cell-based
Method: as §1
(§2) The MBC was determined as recommended by the National Committee for Clinical Laboratory Standards (NCCLS) on strains of E. coli ATCC 25922 and P. aeruginosa ATCC 27853.

P. aeruginosa ATCC 27853 = experiment: Minimal bactericidal concentration (MBC); assay type: cell-based
Method: as §1, §2

[2] = test system: murine macrophage cells J774 A.1; experiment: Cytotoxicity test by MTT; assay type: cell-based, mouse
Method: The cytotoxicity of antibacterial MAP peptides was evaluated on different eukaryotic cell lines by a colorimetric assay (MTT). This assay measures the cells' ability to convert a soluble tetrazolium salt into an insoluble precipitate: formazan. The cytotoxicity of M1 was evaluated on murine macrophagic cells (J774 A.1), murine myeloma cells (SPO) and Chinese hamster ovary epithelium cells (CHO K1). As shown FIG. 4, even at high concentrations (1 mg/ml) M1 cytotoxicity on CHO K1 cells and on SPO cells is low (percent survival is 80-90%).
For cytotoxicity tests, different cell lines were used: murine myeloma cells SPO, hamster ovary epithelium cells CHO K 1, murine macrophage cells J774 A.1 and human keratinocytes HaCaT. The cells were plated in medium in RPMI 1640 (SPO and CHO K 1) and DMEM (J774 A.1 and HaCaT) with antibiotics and bovine foetal serum at 10%, in 96-well plates at the concentration of 6×10^4 (SPO, CHO K1 and J774 A.1) and 3×10^4 (HaCaT). Peptides, previously filtered with a 0.2 μm filter disk (Whatman), were added at various concentrations to the different cell lines and left in incubation over night at 37° C. Cell viability was determined adding the MTT tetrazolium salt at the concentration of 0.5 mg/ml and incubating for 90 min. The cells were solubilised with a solution at pH 4.5 containing SDS 10% and dimethylformamide 45% and read at the dual wavelength of 595/650 nm with a plate reader.

[3] = test system: Pichia pastoris yeast strain X33; experiment: Effect on Pichia pastoris yeast colonies; assay type: cell-based
Method: To a volume of 50 μl of culture of Pichia pastoris grown 24 hour at 30° C. in YPD (Yeast Extract/Peptone/Dextrose) medium, 50 μl of MAP peptides (2 mg/ml) were added and left in incubation 150 min at 37° C. Subsequently, 50 μl of each incubation were plated on YPD solid medium and it was allowed to grow for 48 hours at 30° C. The number of colonies grown was compared with a control, where the yeast was not treated with the MAP.

[4] = Stability to plasmatic protease (HPLC); assay type: in vitro ADME, human
Outline: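 Linear and MAP peptides (10 mM in H2O) incubated with human plasma and serum at 37° C. for 2 and 24 hours. Reaction stopped with methanol; supernatant analysed by reverse-phase C18 HPLC (20-95% TFA/methanol gradient, 30 min) for undigested peptide.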

I: QKKIRVRLSAKKA-OH / II: QKKIRVRLSAK / III: QKKIRVRLSA / IV: QKKIRVRLSA (amide I:11-IV:C, I:12-II:C, II:11-III:C) [M6, QKKIRVRLSA]
MIC (Molarity) [1]: 49 µM | Antibacterial activity on E. coli TG1 colony growth (E. coli strain TG1): good antibacterial activity | MBC (minimal concentration able to kill 99.9% of the inoculum) compared with MIC (E. coli ATCC 25922): equal to the calculated values of MIC | MBC (minimal concentration able to kill 99.9% of the inoculum) compared with MIC (E. coli ATCC 25922; listed as QKKIRVRLSA): equal to the corresponding MIC values | MBC (minimal concentration able to kill 99.9% of the inoculum) compared with MIC (P. aeruginosa ATCC 27853): equal to the calculated values of MIC | MBC (minimal concentration able to kill 99.9% of the inoculum) compared with MIC (P. aeruginosa ATCC 27853; listed as QKKIRVRLSA): equal to the corresponding MIC values | Concentration at and over which a drop in cell viability was evident (MTT) [2]: ≥ 125 µg/mL | Vitality of J774 A.1 cells as the concentration of MAP peptides increases (MTT) [2]: decreases | Number of yeast colonies vs negative control [3]: did not differ from the negative control | Resistance to plasmatic protease: Plasma 2 h [4]: + | Resistance to plasmatic protease: Plasma 24 h [4]: +
